Source: patent publication US9416099B2 (priority 2010, dated 2016)
Values joined by “and” are separate entries in the source; they are usually repeats but may differ in a detail not shown here. Equal entries are not always repeated.

Tests used:
[1] = format: physicochemical
Pseudomonas aeruginosa = format: cell-based
Staphylococcus aureas = format: cell-based
[2] = test system: Pseudomonas aeruginosa and Staphylococcus aureas; format: cell-based

In the case of `C[N+](C)(C)CCCNC(=O)CCCCCCCCC(CCCCCCCC(=O)NCCC[N+](C)(C)C)S(=O)(=O)O.[Na+]` (centres unmarked) [C18-28, C18 DiDMAPA DiQuat Sulfonate], the “% Separation 1 h” value [1] is reported as 4% and 3.4%, the “% Separation 24 h” value [1] is reported as 4.5% and 3.9% and the “Adjuvant 1 h, mL separation” value is reported as 0 mL. For the same molecule, the “Anionic 1 h, mL separation” value was 0 mL, the “Adjuvant 24 h, mL separation” value was 0 mL and the “Anionic 24 h, mL separation” value was 0 mL.

In the case of “calcium alkylbenzenesulfonate [Control 1, reference compound]”, the “% Separation 1 h” value [1] is reported as less than 0.2% and the “% Separation 24 h” value [1] is reported as 1.3%.

For `C[N+](C)(CCCNC(=O)CCCCCCCCC(CCCCCCCC(=O)NCCC[N+](C)(C)CC(=O)[O-])S(=O)(=O)[O-])CC(=O)[O-].[Na+]` (centres unmarked) [C18-33, C18 DiBetaine Sulfonate], the “% Separation 1 h” value [1] was 4% and 3%, the “% Separation 24 h” value [1] was 4.5% and 3.4% and the “Adjuvant 1 h, mL separation” value was 0 mL. The “Anionic 1 h, mL separation” value was 0 mL, the “Nonionic 1 h, mL separation” value was 1 mL and the “Adjuvant 24 h, mL separation” value was 0 mL. The “Anionic 24 h, mL separation” value was 0 mL and the “Nonionic 24 h, mL separation” value was 1 mL.

With `CC/C=C/CCCCCCCC[N+](C)(C)Cc1ccccc1` [C12-27, C12 Amine Benzyl Quat] the “% Kill, Pseudomonas aeruginosa, 400 ppm” value (Pseudomonas aeruginosa) was 59.5%, the “% Kill, Pseudomonas aeruginosa, DI water” value (Pseudomonas aeruginosa) was 51.2% and the “% Kill, Staphylococcus aureas, 400 ppm” value (Staphylococcus aureas) was 63.5%. For the same molecule, the “% Kill, Staphylococcus aureas, DI water” value (Staphylococcus aureas) was 46.0%, the “Overall Rating” value [2] was “good” and the “Adjuvant 1 h, mL separation” value was 0 mL. The “Anionic 1 h, mL separation” value was 0 mL, the “Adjuvant 24 h, mL separation” value was 0 mL and the “Anionic 24 h, mL separation” value was 0 mL.

With `C[N+](C)(C)CCCNC(=O)CCCCCCC/C=C/CCCCCCCC(=O)NCCC[N+](C)(C)[O-]` [Mix-35, C18 DiDMAPA Quat AO] the “% Kill, Pseudomonas aeruginosa, 400 ppm” value (Pseudomonas aeruginosa) was 22.1%, the “% Kill, Pseudomonas aeruginosa, DI water” value (Pseudomonas aeruginosa) was 31.4% and the “% Kill, Staphylococcus aureas, 400 ppm” value (Staphylococcus aureas) was 20.9%. For the same molecule, the “% Kill, Staphylococcus aureas, DI water” value (Staphylococcus aureas) was 55.6%, the “Overall Rating” value [2] was “good” and the “Adjuvant 1 h, mL separation” value was 0 mL. For the same molecule, the “Anionic 1 h, mL separation” value was 0 mL, the “Nonionic 1 h, mL separation” value was 5 mL and the “Adjuvant 24 h, mL separation” value was 0 mL. The “Anionic 24 h, mL separation” value was 0 mL and the “Nonionic 24 h, mL separation” value was 1 mL.

In the case of `CCCC(CCCCCCCC(=O)NCCC[N+](C)(C)CC(=O)[O-])S(=O)(=O)[O-].[Na+]` (centres unmarked) [C12-23, C12 DMAPA Betaine Sulfonate], the “% Separation 1 h” value [1] is reported as 3%, the “% Separation 24 h” value [1] is reported as 3.5% and 3% and the “Adjuvant 1 h, mL separation” value is reported as 0 mL. The “Anionic 1 h, mL separation” value was 0 mL, the “Adjuvant 24 h, mL separation” value was 0 mL and the “Anionic 24 h, mL separation” value was 0 mL. The “Nonionic 24 h, mL separation” value was 0.25 mL.

For `C[N+](C)(C)CCCNC(=O)CCCCCCC/C=C/CCCCCCCC(=O)NCCC[N+](C)(C)CC(=O)O` [C18-38, C18 DiDMAPA Betaine Quat], the “% Kill, Pseudomonas aeruginosa, 400 ppm” value (Pseudomonas aeruginosa) was 18.8%, the “% Kill, Pseudomonas aeruginosa, DI water” value (Pseudomonas aeruginosa) was 42.2% and the “% Kill, Staphylococcus aureas, 400 ppm” value (Staphylococcus aureas) was 30.3%. For the same molecule, the “% Kill, Staphylococcus aureas, DI water” value (Staphylococcus aureas) was 57.4% and the “Overall Rating” value [2] was “good”.

With `C[N+](C)(C)CCCNC(=O)CCCCCCC/C=C/CCCCCCCC(=O)NCCC[N+](C)(C)C` [Mix-27, C18 DiDMAPA DiQuat] the “% Kill, Pseudomonas aeruginosa, 400 ppm” value (Pseudomonas aeruginosa) was 23.2%, the “% Kill, Pseudomonas aeruginosa, DI water” value (Pseudomonas aeruginosa) was 52.4% and the “% Kill, Staphylococcus aureas, 400 ppm” value (Staphylococcus aureas) was 23.2%. The “% Kill, Staphylococcus aureas, DI water” value (Staphylococcus aureas) was 56.1%, the “Overall Rating” value [2] was “good” and the “Adjuvant 1 h, mL separation” value was 0 mL. For the same molecule, the “Anionic 1 h, mL separation” value was 0 mL, the “Nonionic 1 h, mL separation” value was 0 mL and the “Adjuvant 24 h, mL separation” value was 0 mL. For the same molecule, the “Anionic 24 h, mL separation” value was 0 mL and the “Nonionic 24 h, mL separation” value was 0 mL.
